According to article doi:10.1101/2025.11.20.689572v1 (biorxiv, 2025):
Like-named read-outs stand apart in the source and are kept apart here.

Assays:
H4 = target: T1, H4 (Homo sapiens, UniProt Q9H3N8); test: competitive radioligand binding, HEK293 membranes
T1 construct: gene HRH4; full-length receptor; HEK293 cell membranes
Text: competitive radioligand binding, HEK293 membranes on H4

M3 [1] = target: T2, M3 (Homo sapiens, UniProt P20309); test: competitive radioligand binding, HEK293 membranes
T2 construct: gene CHRM3; full-length receptor; HEK293 with TRUPATH sensors (function)
T2 sequence (P20309 whole entry): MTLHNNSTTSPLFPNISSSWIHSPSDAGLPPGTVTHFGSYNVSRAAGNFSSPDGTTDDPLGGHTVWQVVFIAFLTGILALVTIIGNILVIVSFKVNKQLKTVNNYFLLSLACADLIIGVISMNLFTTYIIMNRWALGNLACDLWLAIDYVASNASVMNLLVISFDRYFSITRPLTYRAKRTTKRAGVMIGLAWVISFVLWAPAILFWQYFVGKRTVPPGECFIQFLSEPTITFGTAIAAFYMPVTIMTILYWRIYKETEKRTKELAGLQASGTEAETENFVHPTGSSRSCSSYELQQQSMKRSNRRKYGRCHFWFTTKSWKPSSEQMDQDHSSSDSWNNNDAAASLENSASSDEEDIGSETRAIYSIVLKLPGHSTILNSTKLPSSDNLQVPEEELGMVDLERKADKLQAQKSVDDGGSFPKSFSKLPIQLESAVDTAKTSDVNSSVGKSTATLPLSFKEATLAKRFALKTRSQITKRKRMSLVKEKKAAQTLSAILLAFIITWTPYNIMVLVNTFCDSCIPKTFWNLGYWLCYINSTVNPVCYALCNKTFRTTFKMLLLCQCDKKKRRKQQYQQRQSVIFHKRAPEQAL
Text: competitive radioligand binding, HEK293 membranes on M3

M3 [2] = target: T2, M3; test: TRUPATH BRET2 G protein dissociation, HEK293; type: cell-based; conditions: HBSS, […] HEPES pH […] °C; agonist mode
CHRM1 = target: T3, CHRM1 (Homo sapiens, UniProt P11229); test: cell-based; design: species or system HEK293; BRET1 beta-arrestin2 recruitment, receptor-RLuc8 and mVenus-beta-arrestin2 with GRK2; conditions: Assay=barr2, agonist mode, % of control agonist
T3 sequence (P11229 1-460): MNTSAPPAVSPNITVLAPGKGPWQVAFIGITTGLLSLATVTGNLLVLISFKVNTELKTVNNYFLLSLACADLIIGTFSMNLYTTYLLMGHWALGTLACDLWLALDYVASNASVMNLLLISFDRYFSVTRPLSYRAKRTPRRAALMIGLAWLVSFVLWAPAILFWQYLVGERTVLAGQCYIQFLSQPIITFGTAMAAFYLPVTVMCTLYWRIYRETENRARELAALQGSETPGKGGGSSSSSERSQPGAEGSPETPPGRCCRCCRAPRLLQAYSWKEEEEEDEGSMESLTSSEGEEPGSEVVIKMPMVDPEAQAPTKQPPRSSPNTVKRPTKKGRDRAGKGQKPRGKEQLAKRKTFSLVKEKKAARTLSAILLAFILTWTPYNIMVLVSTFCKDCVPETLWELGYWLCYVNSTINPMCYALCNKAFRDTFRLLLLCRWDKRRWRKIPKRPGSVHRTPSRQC
Text: (§1) BRET1 assays followed prior methods.

CHRM4 = target: T4, CHRM4 (Homo sapiens, UniProt P08173); test: cell-based; design: species or system HEK293; BRET1 beta-arrestin2 recruitment, receptor-RLuc8 and mVenus-beta-arrestin2 with GRK2; conditions: Assay=barr2, agonist mode, % of control agonist
T4 sequence (P08173 1-479): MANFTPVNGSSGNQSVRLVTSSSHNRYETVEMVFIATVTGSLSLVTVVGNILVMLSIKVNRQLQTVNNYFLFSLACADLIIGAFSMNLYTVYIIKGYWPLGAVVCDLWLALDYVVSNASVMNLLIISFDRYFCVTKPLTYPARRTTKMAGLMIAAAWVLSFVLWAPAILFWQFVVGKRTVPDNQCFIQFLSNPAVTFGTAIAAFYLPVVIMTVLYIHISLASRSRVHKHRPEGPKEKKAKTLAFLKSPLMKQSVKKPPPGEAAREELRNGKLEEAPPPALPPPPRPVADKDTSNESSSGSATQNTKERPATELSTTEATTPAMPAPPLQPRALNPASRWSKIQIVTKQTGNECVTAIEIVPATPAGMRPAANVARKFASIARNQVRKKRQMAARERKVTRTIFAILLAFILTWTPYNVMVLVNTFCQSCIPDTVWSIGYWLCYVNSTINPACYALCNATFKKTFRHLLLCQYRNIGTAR
Text: as §1

CHRM3 = CHRM3 (Homo sapiens, UniProt P20309); test: cell-based; design: species or system HEK293; BRET1 beta-arrestin2 recruitment, receptor-RLuc8 and mVenus-beta-arrestin2 with GRK2; conditions: Assay=barr2, agonist mode, % of control agonist
CHRM3, sequence (P20309 whole entry): as the sequence (P20309 whole entry) above
Text: as §1

CHRM5 = target: T5, CHRM5 (Homo sapiens, UniProt P08912); test: cell-based; design: species or system HEK293; BRET1 beta-arrestin2 recruitment, receptor-RLuc8 and mVenus-beta-arrestin2 with GRK2; conditions: Assay=barr2, agonist mode, % of control agonist
T5 sequence (P08912 1-532): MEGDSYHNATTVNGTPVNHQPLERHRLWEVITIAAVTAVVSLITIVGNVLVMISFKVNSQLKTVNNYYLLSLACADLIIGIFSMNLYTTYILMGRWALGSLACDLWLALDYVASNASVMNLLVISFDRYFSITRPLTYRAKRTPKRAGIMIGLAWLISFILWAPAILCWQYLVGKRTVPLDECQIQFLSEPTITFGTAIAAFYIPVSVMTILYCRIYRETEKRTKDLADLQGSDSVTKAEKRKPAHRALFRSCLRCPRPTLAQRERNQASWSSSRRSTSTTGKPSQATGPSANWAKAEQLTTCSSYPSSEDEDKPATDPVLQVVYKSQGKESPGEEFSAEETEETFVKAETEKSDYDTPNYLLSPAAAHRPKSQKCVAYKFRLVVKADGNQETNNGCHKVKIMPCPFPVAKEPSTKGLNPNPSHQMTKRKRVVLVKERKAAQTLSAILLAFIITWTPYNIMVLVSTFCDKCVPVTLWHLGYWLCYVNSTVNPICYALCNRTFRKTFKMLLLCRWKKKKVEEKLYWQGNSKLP
Text: as §1

5-HT1D [3] = target: T6, 5-HT1D (Homo sapiens, UniProt P28221); test: competitive radioligand binding, HEK293 membranes
T6 construct: gene HTR1D; full-length receptor; HEK293 with TRUPATH sensors (function)
T6 sequence (P28221 whole entry): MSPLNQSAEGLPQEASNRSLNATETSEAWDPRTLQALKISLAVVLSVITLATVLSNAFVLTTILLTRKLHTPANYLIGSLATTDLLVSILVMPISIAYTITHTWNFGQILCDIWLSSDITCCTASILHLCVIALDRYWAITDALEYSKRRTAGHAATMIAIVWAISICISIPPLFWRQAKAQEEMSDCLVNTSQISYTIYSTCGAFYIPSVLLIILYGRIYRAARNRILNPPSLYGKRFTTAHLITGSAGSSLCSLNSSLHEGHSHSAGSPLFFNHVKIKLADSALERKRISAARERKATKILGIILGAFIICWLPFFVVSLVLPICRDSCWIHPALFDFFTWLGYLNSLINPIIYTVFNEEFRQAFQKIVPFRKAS

5-HT1D [4] = target: T6, 5-HT1D; test: TRUPATH BRET2 G protein dissociation, HEK293; type: cell-based; conditions: HBSS, […] HEPES pH […] °C; agonist mode
5-HT1B = target: T7, 5-HT1B (Homo sapiens, UniProt P28222); test: competitive radioligand binding, HEK293 membranes
T7 construct: gene HTR1B; full-length receptor; HEK293 cell membranes
T7 sequence (P28222 whole entry): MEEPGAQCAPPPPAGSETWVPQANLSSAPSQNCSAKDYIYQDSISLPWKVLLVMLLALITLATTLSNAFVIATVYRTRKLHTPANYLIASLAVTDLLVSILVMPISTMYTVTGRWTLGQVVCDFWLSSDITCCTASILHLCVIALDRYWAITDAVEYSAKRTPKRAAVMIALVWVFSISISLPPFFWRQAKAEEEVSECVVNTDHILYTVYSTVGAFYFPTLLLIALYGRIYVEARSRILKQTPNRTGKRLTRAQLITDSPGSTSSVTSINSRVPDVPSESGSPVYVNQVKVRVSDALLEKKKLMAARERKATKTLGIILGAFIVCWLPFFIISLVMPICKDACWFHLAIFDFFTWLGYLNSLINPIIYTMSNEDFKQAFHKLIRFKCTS
Text: competitive radioligand binding, HEK293 membranes on 5-HT1B

[5] = HEK293, read-out: N-Desmethyl Xanomeline

T1 sequence (Q9H3N8 whole entry): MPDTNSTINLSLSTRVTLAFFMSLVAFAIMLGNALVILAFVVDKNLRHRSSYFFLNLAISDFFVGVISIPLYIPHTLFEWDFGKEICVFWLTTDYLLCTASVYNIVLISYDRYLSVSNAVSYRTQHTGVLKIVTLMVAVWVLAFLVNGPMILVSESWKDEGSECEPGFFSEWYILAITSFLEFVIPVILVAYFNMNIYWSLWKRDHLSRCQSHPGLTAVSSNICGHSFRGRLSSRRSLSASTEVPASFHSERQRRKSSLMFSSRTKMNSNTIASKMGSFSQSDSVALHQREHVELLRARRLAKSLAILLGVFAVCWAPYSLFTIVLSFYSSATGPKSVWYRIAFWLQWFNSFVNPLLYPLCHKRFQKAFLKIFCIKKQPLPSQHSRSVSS

SMILES | Ki (H4) | Ki (M3 [1]) | EC50 (M3 [2]) | Emax (CHRM1; [5]) | Emax (CHRM4; [5]) | Emax (CHRM3; [5]) | Emax (CHRM5; [5]) | Ki (5-HT1D [3]) | EC50 (5-HT1D [4]) | Ki (5-HT1B) | Emax (CHRM1; HEK293, read-out: Xanomeline) | Emax (CHRM4; HEK293, read-out: Xanomeline) | Emax (CHRM3; HEK293, read-out: Xanomeline) | Emax (CHRM5; HEK293, read-out: Xanomeline)
CCCCCCOc1nsnc1C1=CCCNC1 [N-desmethylxanomeline] | 363 nM | 112 nM | differential activation of M1-M5 muscarinic receptor transducers | 71.3% | 20.5% | 32.8% | 16.9% | 38.9 nM | full or partial agonists at 5-HT1D and 5-HT1A in a transducer-dependent fashion | 178 nM |  |  |  | 
CCCCCCOc1nsnc1C1=CCCN(C)C1 [Xanomeline] |  | 74.1 nM | differential activation of M1-M5 muscarinic receptor transducers |  |  |  |  |  | full or partial agonists at 5-HT1D and 5-HT1A in a transducer-dependent fashion | 724 nM | 73.2% | 29.1% | 21.7% | 27.2%
